Measured values: patent JPH07291935A, “スピロ化合物、その製造法および剤” (Takeda Chemical Industries Ltd, priority 1994, dated 1995)
Read-outs that look alike come from different tables or passages of the source.

Columns and labels:
[1] = target: T1, type B monoamine oxidase (MAO-B) [B型モノアミン酸化酵素(MAO−B)] (Rattus norvegicus, UniProt P19643); assay: biochemical
T1 sequence (P19643 1-520): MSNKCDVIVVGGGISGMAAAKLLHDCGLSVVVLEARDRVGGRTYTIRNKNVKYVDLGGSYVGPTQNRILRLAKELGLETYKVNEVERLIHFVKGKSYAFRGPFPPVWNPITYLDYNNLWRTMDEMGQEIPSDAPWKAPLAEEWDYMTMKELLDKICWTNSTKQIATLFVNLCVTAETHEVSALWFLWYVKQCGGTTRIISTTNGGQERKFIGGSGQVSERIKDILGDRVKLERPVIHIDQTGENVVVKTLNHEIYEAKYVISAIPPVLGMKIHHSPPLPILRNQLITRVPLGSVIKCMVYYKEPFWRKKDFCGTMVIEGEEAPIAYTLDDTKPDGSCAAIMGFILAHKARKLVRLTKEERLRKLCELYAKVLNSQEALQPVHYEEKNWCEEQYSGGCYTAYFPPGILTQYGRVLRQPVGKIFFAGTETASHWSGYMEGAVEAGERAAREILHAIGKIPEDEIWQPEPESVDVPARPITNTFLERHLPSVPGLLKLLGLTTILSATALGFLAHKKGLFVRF

[2] = system: norepinephrine (NE) uptake [ノルエピネフリン(NE)の取り込み]; assay: norepinephrine (NE) uptake inhibition; type: biochemical; details: rat cerebral cortex, 3H-NE as substrate
[3] = system: serotonin (5-HT) uptake [セロトニン(5−HT)の取り込み]; assay: serotonin (5-HT) uptake inhibition; type: biochemical; details: rat whole brain preparation, 3H-5-HT 10 nM, 37℃, 5 min
[4] = system: 45Ca2+ uptake [45Ca2+取り込み]; assay: 45Ca2+ uptake inhibition (veratrine-stimulated); type: biochemical; details: 10 μM; rat cerebral cortex crude synaptosomes; veratrine 30 μM; 37℃, 10 min
[5] = MAO-B, rat whole brain homogenate, 14C-phenylethylamine 10 μM, 37℃, 5 min, read-out: IC50

| Structure (SMILES) | IC50 [1, 5] [nM] | IC50 [2] [nM] | IC50 [3] [nM] | % inhibition rate (45Ca uptake) [4] [%] | IC50 [1] [nM] |
| --- | --- | --- | --- | --- | --- |
| CCCN1CCCCC12CCc1cc(OCc3ccccc3Cl)ccc1C2 (centres unmarked) [実施例9−6, 6−(2−クロロフェニルメトキシ)−3,4−ジヒドロ−1′−プロピルスピロ〔ナフタレン−2(1H),2′−ピペリジン〕 塩酸塩] | 2510 |  |  |  |  |
| CCCN1CCCCC12CCc1cc(OCc3ccc(Cl)cc3)ccc1C2 (centres unmarked) [実施例9−8, 6−(4−クロロフェニルメトキシ)−3,4−ジヒドロ−1′−プロピルスピロ〔ナフタレン−2(1H),2′−ピペリジン〕 塩酸塩] |  | 35 | 180 |  |  |
| COc1ccc2c(c1)CCC1(CCCCN1CCN1CCN(c3cccc(C(F)(F)F)c3)CC1)C2 (centres unmarked) [実施例7−6, 1′−〔2−(4−(3−トリフルオロメチルフェニル)ピペラジン−1−イル)エチル〕−3,4−ジヒドロ−6−メトキシスピロ〔ナフタレン−2(1H),2′−ピペリジン〕 2塩酸塩] |  |  |  | 106 |  |
| CCCN1CCCCC12CCc1cc(OCc3ccsc3)ccc1C2 (centres unmarked) [実施例9−45, 3,4−ジヒドロ−1′−プロピル−6−(3−チエニルメトキシ)スピロ〔ナフタレン−2(1H),2′−ピペリジン〕 塩酸塩] |  |  |  |  | 66 |
| CCCN1CCCCC12CCc1cc(OCCc3ccccc3)ccc1C2 (centres unmarked) [実施例9−16, 3,4−ジヒドロ−6−(2−フェニルエトキシ)−1′−プロピルスピロ〔ナフタレン−2(1H),2′−ピペリジン〕 2塩酸塩] | 590 |  |  |  |  |
| CCCN1CCCCC12CCc1cc(OCc3ccccc3OC)ccc1C2 (centres unmarked) [実施例9−23, 3,4−ジヒドロ−6−(2−メトキシフェニルメトキシ)−1′−プロピルスピロ〔ナフタレン−2(1H),2′−ピペリジン〕 塩酸塩] | 2830 |  |  |  |  |
| COc1ccc2c(c1)CCC1(CCCCN1CCN1CCN(c3ccc(F)cc3)CC1)C2 (centres unmarked) [実施例7−5, 1′−〔2−(4−(4−フルオロフェニル)ピペラジン−1−イル)エチル〕−3,4−ジヒドロ−6−メトキシスピロ〔ナフタレン−2(1H),2′−ピペリジン〕 2塩酸塩] |  | 3350 | 30 | 87 |  |
| CCCN1CCCCC12CCc1cc(OCc3ccccc3C#N)ccc1C2 (centres unmarked) [実施例9−20, 6−(2−シアノフェニルメトキシ)−3,4−ジヒドロ−1′−プロピルスピロ〔ナフタレン−2(1H),2′−ピペリジン〕 塩酸塩] |  | 54 | 320 |  |  |
| CCCN1CCCCC12CCc1cc(OCc3ccccc3)ccc1C2 (centres unmarked) [実施例9−1, 3,4−ジヒドロ−6−フェニルメトキシ−1’−プロピルスピロ〔ナフタレン−2(1H),2’−ピペリジン〕 塩酸塩] | 280 |  |  |  |  |
| CCCN1CCCCC12CCc1cc(OCc3ccccc3C)ccc1C2 (centres unmarked) [実施例9−18, 3,4−ジヒドロ−6−(2−メチルフェニルメトキシ)−1′−プロピルスピロ〔ナフタレン−2(1H),2′−ピペリジン〕 塩酸塩] | 1490 |  |  |  |  |
| COc1ccc2c(c1)CCC1(CCCCN1CCCCN1C(=O)c3ccccc3C1=O)C2 (centres unmarked) [実施例5−11, 3,4−ジヒドロ−6−メトキシ−1′−(4−フタルイミドブチル)スピロ〔ナフタレン−2(1H),2′−ピペリジン〕 塩酸塩] |  | 500 | 4.5 |  |  |
| CCCN1CCCCC12CCc1cc(OCc3ccccc3F)ccc1C2 (centres unmarked) [実施例9−19, 6−(2−フルオロフェニルメトキシ)−3,4−ジヒドロ−1′−プロピルスピロ〔ナフタレン−2(1H),2′−ピペリジン〕 塩酸塩] | 890 | 90 | 800 |  |  |
| COc1ccc2c(c1)CCC1(CCCCN1CCCC1CCN(Cc3ccccc3)CC1)C2 (centres unmarked) [実施例5−14, 3,4−ジヒドロ−6−メトキシ−1′−〔3−(1−フェニルメチルピペリジン−4−イル)プロピル〕スピロ〔ナフタレン−2(1H),2′−ピペリジン〕 2塩酸塩] |  | 180 | 11 | 74 |  |
| COc1ccc2c(c1)CCC1(CCCCN1CCN1CCC(c3ccccc3)CC1)C2 (centres unmarked) [実施例7−9, 3,4−ジヒドロ−6−メトキシ−1′−〔2−(4−フェニルピペリジン−1−イル)エチル〕スピロ〔ナフタレン−2(1H),2′−ピペリジン〕 2塩酸塩] |  |  |  | 109 |  |
| COc1ccc2c(c1)CCC1(CCCCN1CCOc1ccccc1)C2 (centres unmarked) [実施例5−10, 3,4−ジヒドロ−6−メトキシ−1′−(2−フェノキシエチル)スピロ〔ナフタレン−2(1H),2′−ピペリジン〕 塩酸塩] |  | 830 | 9.6 | 88 |  |
| COc1ccc2c(c1)CC[C@@]1(CCCCN1CCN1CCN(c3cccc(C(F)(F)F)c3)CC1)C2 [実施例30−2, (S)−(−)−1’−〔2−4−(3−トリフルオロメチルフェニル)ピペラジン−1−イル)エチル〕−3,4−ジヒドロ−6−メトキシスピロ〔ナフタレン−2(1H),2’−ピペリジン〕 2塩酸塩] |  | 280 | 9.5 |  |  |
| COc1ccc2c(c1)CCC1(CCCCN1CCN1CCN(c3ccccc3Cl)CC1)C2 (centres unmarked) [実施例7−3, 1′−〔2−(4−(2−クロロフェニル)ピペラジン−1−イル)エチル〕−3,4−ジヒドロ−6−メトキシスピロ〔ナフタレン−2(1H),2′−ピペリジン〕 2塩酸塩] |  |  |  | 95 |  |
| CCCN1CCCCC12CCc1cc(OCc3cccc(C#N)c3)ccc1C2 (centres unmarked) [実施例9−9, 6−(3−シアノフェニルメトキシ)−3,4−ジヒドロ−1′−プロピルスピロ〔ナフタレン−2(1H),2′−ピペリジン〕 塩酸塩] |  | 62 | 280 |  |  |
| COc1ccc2c(c1)CCC1(CCCCN1CCCc1ccccc1)C2 (centres unmarked) [実施例5−9, 3,4−ジヒドロ−6−メトキシ−1′−(3−フェニルプロピル)スピロ〔ナフタレン−2(1H),2′−ピペリジン〕 塩酸塩] |  |  |  | 92 |  |
| NC(=O)CN1CCCCC12CCc1cc(OCc3ccc(F)cc3)ccc1C2 (centres unmarked) [実施例9−32, {6−(4−フルオロフェニルメトキシ−3,4−ジヒドロスピロ〔ナフタレン−2(1H),2′−ピペリジン〕}−1′−イルアセトアミド 塩酸塩] | 530 |  |  |  |  |
| CCCN1CCCCC12CCc1cc(OCc3ccc(Cl)cc3Cl)ccc1C2 (centres unmarked) [実施例9−22, 6−(2,4−ジクロロフェニルメトキシ)−3,4−ジヒドロ−1′−プロピルスピロ〔ナフタレン−2(1H),2′−ピペリジン〕 塩酸塩] |  | 67 | 190 |  |  |
| COc1cccc(N2CCN(CCN3CCCCC34CCc3cc(OC)ccc3C4)CC2)c1 (centres unmarked) [実施例7−1, 3,4−ジヒドロ−6−メトキシ−1’−〔2−(4−(3−メトキシフェニル)ピペラジン−1−イル)エチル〕スピロ〔ナフタレン−2(1H),2’−ピペリジン〕 2塩酸塩] |  | 4770 | 22 | 90 |  |
| CCCN1CCCCC12CCc1cc(OCc3cccc(Cl)c3)ccc1C2 (centres unmarked) [実施例9−7, 6−(3−クロロフェニルメトキシ)−3,4−ジヒドロ−1′−プロピルスピロ〔ナフタレン−2(1H),2′−ピペリジン〕 塩酸塩] | 1630 | 59 | 700 |  |  |
| CCCN1CCCCC12CCc1cc(OCc3ccc(F)cc3)ccc1C2 (centres unmarked) [実施例9−21, 6−(4−フルオロフェニルメトキシ)−3,4−ジヒドロ−1′−プロピルスピロ〔ナフタレン−2(1H),2′−ピペリジン〕 塩酸塩] | 680 | 97 | 340 |  |  |
